From ChEMBL document CHEMBL5154798, “Structure-based discovery of receptor tyrosine kinase AXL degraders with excellent anti-tumor activity by selectively degrading AXL and inducing methuosis” (Eur J Med Chem, 2022)
Active and inactive are the calls of the source. The rule behind the calls is not given here.

How the values were obtained:
[1] = Oral bioavailability in male Sprague-Dawley rat at 20 mg/kg administered as single dose measured by LC/MS/MS analysis; assay type: ADME, organism-based; settings: in vivo
[2] = test system: MDA-MB-231; test: Induction of cytoplasmic vacuolation in human MDA-MB-231 cells at 0.5 uM; assay type: functional, cell-based
[3] = Clearance in male Sprague-Dawley rat at 2 mg/kg, iv administered as single dose measured by LC/MS/MS analysis; assay type: ADME, organism-based; settings: in vivo, iv, 2 mg/kg
[4] = Cmax in male Sprague-Dawley rat at 20 mg/kg, po administered as single dose measured by LC/MS/MS analysis; assay type: ADME, organism-based; design: dose 20 mg/kg, route po; settings: in vivo
[5] = test system: MDA-MB-231; test: Antitumor activity against human MDA-MB-231 cells xenografted in female BALB/c nude mouse assessed as tumor growth inhibition at 25 mg/kg, ip; assay type: functional, organism-based
[6] = test system: MDA-MB-231; test: Antiproliferative activity against human MDA-MB-231 cells highly expressing AXL after 72 hrs by MTT assay; settings: MDA-MB-231, 72 h
[7] = Systemic toxicity in female BALB/c nude mouse xenografted with human MDA-MB-231 cells assessed as inflammatory cell infiltration in heart at 25 mg/kg, ip; assay type: organism-based; settings: in vivo
[8] = test system: MDA-MB-231; test: Induction of macropinocytosis in human MDA-MB-231 cells assessed as co-localization of LAMP-1 with lucifer yellow measured by immunofluorescence assay; assay type: functional, cell-based
[9] = test system: 4T1; test: Antiproliferative activity against mouse 4T1 cells highly expressing AXL after 72 hrs by MTT assay; settings: 4T1, 72 h
[10] = test system: MDA-MB-231; test: Induction of macropinocytosis in human MDA-MB-231 cells assessed as co-localization of Rab7 with lucifer yellow measured by immunofluorescence assay; assay type: functional, cell-based
[11] = Systemic toxicity in female BALB/c nude mouse xenografted with human MDA-MB-231 cells assessed as necrosis of liver tissue at 25 mg/kg, ip; assay type: organism-based; settings: in vivo
[12] = Systemic toxicity in female BALB/c nude mouse xenografted with human MDA-MB-231 cells assessed as necrosis of spleen tissue at 25 mg/kg, ip; assay type: organism-based; settings: in vivo
[13] = test system: MDA-MB-231; test: Induction of macropinocytosis in human MDA-MB-231 cells measured by MitoTracker staining based fluorescence microscopy; assay type: functional, cell-based
[14] = Systemic toxicity in female BALB/c nude mouse xenografted with human MDA-MB-231 cells assessed as necrosis of heart tissue at 25 mg/kg, ip; assay type: organism-based; settings: in vivo
[15] = Cytotoxicity against human MCF-10A cells after 72 hrs by MTT assay; assay type: toxicity, cell-based
[16] = Half-life in male Sprague-Dawley rat at 20 mg/kg, po administered as single dose measured by LC/MS/MS analysis; assay type: ADME, organism-based; settings: in vivo
[17] = test system: 4T1; test: Induction of cytoplasmic vacuolation in mouse 4T1 cells at 0.5 uM; assay type: functional, cell-based
[18] = Tmax in male Sprague-Dawley rat at 2 mg/kg, iv administered as single dose measured by LC/MS/MS analysis; assay type: ADME, organism-based; settings: in vivo
[19] = Cmax in male Sprague-Dawley rat at 2 mg/kg, iv administered as single dose measured by LC/MS/MS analysis; assay type: ADME, organism-based; design: dose 2 mg/kg, route iv; settings: in vivo
[20] = Tmax in male Sprague-Dawley rat at 20 mg/kg, po administered as single dose measured by LC/MS/MS analysis; assay type: ADME, organism-based; settings: in vivo
[21] = Toxicity in female BALB/c nude mouse xenografted with human MDA-MB-231 cells assessed as change in body wieght at 25 mg/kg, ip; assay type: organism-based; settings: in vivo
[22] = test system: MDA-MB-231; test: Induction of cytoplasmic vacuolation in human MDA-MB-231 cells at 1 uM in presence of 1 uM pan-caspase inhibitor Z-VAD-FMK; assay type: functional, cell-based
[23] = Systemic toxicity in female BALB/c nude mouse xenografted with human MDA-MB-231 cells assessed as inflammatory cell infiltration in liver at 25 mg/kg, ip; assay type: organism-based; settings: in vivo
[24] = Cytotoxicity against human GES1 cells after 72 hrs by MTT assay; assay type: toxicity, cell-based
[25] = Systemic toxicity in female BALB/c nude mouse xenografted with human MDA-MB-231 cells assessed as inflammatory cell infiltration in lung at 25 mg/kg, ip; assay type: organism-based; settings: in vivo
[26] = Half-life in male Sprague-Dawley rat at 2 mg/kg, iv administered as single dose measured by LC/MS/MS analysis; assay type: ADME, organism-based; settings: in vivo
[27] = AUC (0 to t) in male Sprague-Dawley rat at 20 mg/kg, po administered as single dose measured by LC/MS/MS analysis; assay type: ADME, organism-based; design: dose 20 mg/kg, route po; settings: in vivo
[28] = Systemic toxicity in female BALB/c nude mouse xenografted with human MDA-MB-231 cells assessed as necrosis of lung tissue at 25 mg/kg, ip; assay type: organism-based; settings: in vivo
[29] = test system: MDA-MB-231; test: Induction of macropinocytosis in human MDA-MB-231 cells measured by LysoTracker staining based fluorescence microscopy; assay type: functional, cell-based
[30] = Systemic toxicity in female BALB/c nude mouse xenografted with human MDA-MB-231 cells assessed as necrosis of kidney tissue at 25 mg/kg, ip; assay type: organism-based; settings: in vivo
[31] = test system: Mus musculus; test: In vivo induction of CRBN-mediated AXL degradation in mouse measured after 6 hrs; assay type: functional, organism-based
[32] = Systemic toxicity in female BALB/c nude mouse xenografted with human MDA-MB-231 cells assessed as inflammatory cell infiltration in spleen at 25 mg/kg, ip; assay type: organism-based; settings: in vivo
[33] = Systemic toxicity in female BALB/c nude mouse xenografted with human MDA-MB-231 cells assessed as inflammatory cell infiltration in kidney at 25 mg/kg, ip; assay type: organism-based; settings: in vivo
[34] = AUC (0 to t) in male Sprague-Dawley rat at 2 mg/kg, iv administered as single dose measured by LC/MS/MS analysis; assay type: ADME, organism-based; design: dose 2 mg/kg, route iv; settings: in vivo

SMILES: Nc1nc(Nc2ccc(CNC(=O)CCCCCNc3cccc4c3CN(C3CCC(=O)NC3=O)C4=O)cc2)nn1-c1ccc(-c2ccccc2)nn1 (centres undefined)
- bioavailability [1]: 7.8%
- Activity [2]: Active
- CL [3]: 0.72 L/h/kg
- Cmax [4]: 0.144 µg/mL
- TGI [5]: Active
- IC50 [6]: 6.23 µM
- Activity [7]: Non-Toxic
- Activity [8]: Active
- IC50 [9]: 2.06 µM
- Activity [10]: Active
- Activity [11]: Non-Toxic
- Activity [12]: Non-Toxic
- Activity [13]: Active
- Activity [14]: Non-Toxic
- IC50 at 72 h [15]: > 60 µM
- half-life [16]: 4.43 h
- Activity [17]: Active
- Tmax [18]: 0.82 h
- Cmax [19]: 0.279 µg/mL
- Tmax [20]: 2.25 h
- Activity [21]: Non-Toxic
- Activity [22]: Active
- Activity [23]: Non-Toxic
- IC50 at 72 h [24]: > 60 µM
- Activity [25]: Non-Toxic
- t1/2 [26]: 1.18 h
- AUC(0-t) [27]: 3.59 µg·h/mL
- Activity [28]: Non-Toxic
- Activity [29]: Active
- Activity [30]: Non-Toxic
- Activity [31]: Active
- Activity [32]: Non-Toxic
- Activity [33]: Non-Toxic
- AUCt [34]: 7.5813 µg·h/mL
